Assay results taken from PubChem BioAssay (NCI).
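Step 1: Grow cells in 96-well plates. Step 2: Expose to compound for 48 hours at 5 concentrations. Step 3: Interpolate endpoints linearly; if unreached, use highest concentration. At the TGI there is no net growth.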

Tests used:
Assay in all cases: inhibition of tumour cell growth, NCI panel, 48 h
[1] = tested on: U251 CNS
[2] = tested on: MOLT-4 leukemia
[3] = tested on: SNB-75 CNS
[4] = tested on: LXFL 529 NSCLC
[5] = tested on: UO-31 renal
[6] = tested on: KM20L2 colon
[7] = tested on: DLD-1 colon
[8] = tested on: A498 renal
[9] = tested on: HOP-18 NSCLC
[10] = tested on: MCF7 breast

Row | Structure (SMILES) | TGI [1] [µM] | TGI [2] [µM] | TGI [3] [µM] | TGI [4] [µM] | TGI [5] [µM] | TGI [6] [µM] | TGI [7] [µM] | TGI [8] [µM] | TGI [9] [µM] | TGI [10] [µM]
1 | Cc1cccc(C(C)(C)C)c1NC(=O)CC1C(=O)Nc2ccccc2S1=O (stereo not drawn) | > 100 | 69.2 | > 100 | > 100 | > 100 | > 100 | > 100 | – | – | –
2 | COc1cc2c(cc1OC)-c1c(cnn1C1OC(COC(C)=O)C(OC(C)=O)C(OC(C)=O)C1OC(C)=O)CC2 (stereo not drawn) | > 100 | > 100 | 98.2 | > 100 | > 100 | > 100 | > 100 | > 100 | – | –
3 | CCN=C1NN=C(c2ccccc2)c2cc(Cl)ccc2N1 | 42.6 | 94.8 | 45.8 | – | 70.2 | – | – | 90 | > 100 | –
4 | CCCOc1ccc(/C=C\c2cc(OC)c(OC)c(OC)c2)cc1 | > 100 | – | > 100 | > 100 | > 100 | > 100 | > 100 | > 100 | > 100 | –
5 | CCOC(=O)/C(C#N)=C(O)/C(=C/c1ccccc1Cl)NC(=O)c1ccccc1 | > 100 | > 100 | > 100 | > 100 | > 100 | > 100 | > 100 | > 100 | > 100 | –
6 | C=CCOc1cc2c(cc1C(C)c1ccc(OC)cc1)OCO2 (stereo not drawn) | > 100 | > 40.6 | 0.527 | 63.9 | > 87.8 | 1.21 | > 100 | > 100 | – | > 100
7 | O=S(=O)(O)C(F)(F)C(F)(F)C(F)(F)C(F)(F)F | > 100 | > 100 | > 100 | > 100 | > 100 | > 100 | > 100 | > 100 | > 100 | –
8 | Clc1ccc(C2=Nc3ccccc3SC(c3ccc(Cl)c(Cl)c3)C2)c(Cl)c1 (stereo not drawn) | 32 | 18.1 | 34.6 | 29.2 | 28.1 | 39.7 | 25.6 | 37.4 | – | –
9 | CCNC(=O)C(O)C1(O)CCC2[C@@H]3CCC4=CC(=O)C=C[C@]4(C)C3[C@@H](O)C[C@@]21C (stereo partly drawn) | > 100 | > 100 | > 100 | > 100 | > 100 | > 100 | > 100 | – | > 100 | –
10 | COc1ccc2[nH]c3c(cnn4cnnc34)c2c1 | > 100 | > 100 | > 100 | > 100 | > 100 | > 100 | > 100 | – | > 100 | –
11 | CSC(=S)N(C)c1nc(=[N+](C)C)ss1 | > 100 | > 100 | > 100 | > 100 | > 100 | > 100 | > 100 | > 100 | > 100 | –
12 | C/C(=N\NC(N)=S)c1ccc(/C(C)=N/NC(N)=S)cc1 | > 100 | > 100 | > 100 | > 100 | > 100 | > 100 | > 100 | > 100 | > 100 | –
